One series relates to blood pressure of SHR. In words: Antihypertensive effect by single administration, SHR, direct cannulation. The series is classed as in vivo, rat (spontaneously hypertensive rats. Conditions: for Rate of Effects (relative to MR): from DB20; for ED (20% blood pressure decrease): Rattus norvegicus, read-out: DB20 (20% blood pressure descending dose). As to the method: The effect was examined through both direct and modified tail-cuff methods using male SHRs aged 25 to 30 weeks and weighing about 300 g.
In the direct cannulation method, polyethylene cannules were inserted in femoral arteries of the conscious unanesthesized SHRs under back-fixation,and MR solution was administered in an amount of 0.1 mg/100 g of weight for venous injection, and 1 ml/100 g of weight for oral administration. Changes in the blood pressure over 6 hours were measured with a multi-purpose polygraph RM-85 made by NIHON KODEN Co., Ltd. MR was dissolved in 0.9% NaCl aqueous solution with 1 N-HCl, and the solution was neutralized for use.

Another series deals with hypertension. The following applies: cited from earlier work; for antihypertensive effect / side effects: remedies for hypertension.
A further series in a line: in vivo. Type of series: in vivo, rat (SD (SPF)). The following applies: rat, in vivo; oral sub-acute, rats; read-out: ineffective dose. On the procedure:
All the rats were observed daily and general symptoms noted. Weight was measured daily, average food-intake once every three days, and average water-intake once every two days.

The subject of another series is rats. Conditions: in connection with RCN; cited from earlier work.
For series [1] the following is noted: converted from FIG. 15 data to 20 mg/kg basis.
Protocol: Blood was drawn from branchial vein of dogs, vein of ear of rabbits and carotic artery of rats after slaughter. Urine was collected with urine bladder catheter for rabbits and metabolic cages for rats. Gathering bile was performed with biliary duct cannulation without anesthesia.

Structures are written as SMILES. Structures can show the parent of a compound that is named as a salt. Where two headings read alike, the source gives them in different places.

`COc1cc2[nH]c3c(c2cc1OC)CCN1C[C@H]2[C@H](C)OC=C(C(=O)OCCN(C)C)[C@H]2C[C@H]31.Cl.Cl` [Dimethylaminoethyl reserpilinate dihydrochloride]: in the series on blood pressure of SHR (I.V.), the “DB20 (20% blood pressure descending dose)” value is on record as 415.7 mg/kg and the “Rate of Effects (relative to MR)” value was found to be 0.01. Further, in the series on blood pressure of SHR (P.O.), the “DB20 (20% blood pressure descending dose)” value was determined as 625.2 mg/kg and the “Rate of Effects (relative to MR)” value is 0.02.
Regarding `C[N+](C)(C)CCCCCC[N+](C)(C)C` [Hexamethonium chloride], the “Rate of Effects (relative to MR)” value in the series with blood pressure of SHR (I.V.) turned out to be 0.08; in the series with blood pressure of SHR (P.O.) it was 0.04. For the same molecule, the values for the ED (20% blood pressure decrease) in the series with blood pressure of SHR (iv) and in the series with blood pressure of SHR (po) were 39.7 mg/kg and 320 mg/kg, respectively.
`NNc1nncc2ccccc12` [Hydralazine hydrochloride]: the figures for the “Rate of Effects (relative to MR)” value in the series with blood pressure of SHR (I.V.) and in the series with blood pressure of SHR (P.O.) were 11.7 and 1.85, respectively. Also, the ED (20% blood pressure decrease) with blood pressure of SHR (iv) came out at 0.3 mg/kg; with blood pressure of SHR (po), 6.4 mg/kg.
For `C[C@](N)(Cc1ccc(O)c(O)c1)C(=O)O` [L-alpha-methyl-dopa], the “Rate of Effects (relative to MR)” value with blood pressure of SHR (I.V.) and with blood pressure of SHR (P.O.) was 0.01 in each case. In addition, the ED (20% blood pressure decrease) was 303 mg/kg in the series on blood pressure of SHR (iv, I.V.) and 1740 mg/kg with blood pressure of SHR (po, P.O.).
`COC(=O)[C@H]1[C@H]2C[C@@H]3c4[nH]c5cc(OC)ccc5c4CCN3C[C@H]2C[C@@H](OC(=O)/C=C/c2cc(OC)c(OC)c(OC)c2)[C@@H]1OC` [RCN, Rescinnamin]: the ED (20% blood pressure decrease) with blood pressure of SHR (iv) is 1.3 mg/kg. For the same molecule, the ED (20% blood pressure decrease) in the series on blood pressure of SHR (po) turned out to be 9.7 mg/kg. In the series on hypertension, the antihypertensive effect result is recorded as “prolonged antihypertensive effect”; the side effects entry is “uneasiness due to central nervous system depression, depressed state and loss of vitality”. Moreover, the “pathological change of stomach mucous” value in the series on hypertension (when RCN is used) is “often occurs”. Moreover, the NOAEL in “in vivo” was 6 mg/kg. Further, in the series with rats, the “pathological changes in adrenal and liver” value is on record as “not reported”. In addition, the “Area under the Curve of MR Content in Serum” value in series [1] is on record as 20.2.
Consider `COC(=O)[C@H]1[C@H]2C[C@@H]3c4[nH]c5cc(OC)ccc5c4CCN3C[C@H]2C[C@@H](OC(=O)c2cc(OC)c(OC)c(OC)c2)[C@@H]1OC` [RSP, Reserpine], for which the “Rate of Effects (relative to MR)” value is on record as 17.7 in the series with blood pressure of SHR (I.V.) and 3.11 in the series on blood pressure of SHR (P.O.). In addition, the ED (20% blood pressure decrease) with blood pressure of SHR (iv) was found to be 0.2 mg/kg; in the series with blood pressure of SHR (po), 3.8 mg/kg. In the series with hypertension, the antihypertensive effect result is reported as “prolonged antihypertensive effect”. Further, the side effects result with hypertension is “uneasiness due to central nervous system depression, depressed state and loss of vitality”.
Turning to `NS(=O)(=O)c1cc2c(cc1Cl)NC(C(Cl)Cl)NS2(=O)=O` (stereo not shown) [Trichlormethiazide], the results for the “Rate of Effects (relative to MR)” value in the series on blood pressure of SHR (I.V.) and in the series with blood pressure of SHR (P.O.) were 0.05 and 0.07, respectively. Also, the ED (20% blood pressure decrease) in the series with blood pressure of SHR (iv, I.V.) worked out at 79.8 mg/kg; with blood pressure of SHR (po, P.O.) it was 150 mg/kg.

The record behind these values is patent US4238491A (priority 1977, dated 1980).
